Laboratory results taken from US20110033906A1 (priority 2009, published 2011).

Legend:
[1] = system: cellulase surface-displaying yeast (arming yeast); conditions: 120 hours after the start of fermentation

With “1-ethyl-3-methylimidazolium diethylphosphate [[Emim][DEP]]” the “ethanol yield relative to theoretical yield” value [1] was “about 56%” and the ethanol obtained ([1]; crystalline cellulose (Avicel) pretreated with [Emim][DEP], arming yeast, ionic liquid present) was 1.43 g/L.

`CCn1cc[n+](C)c1` [[Emim][Cl], 1-ethyl-3-methylimidazolium chloride] was tested, and the “yeast survivability (live cell counts)” value (yeast (MT 8-1)) was “not greatly affected”.
